Laboratory results as given in publication PMC13071878, “Yeast Display Technology Enables Rapid Discovery of Low-Nanomolar Macrocyclic Peptide Inhibitors of Human Angiotensin-Converting Enzyme 2” (Journal of Medicinal Chemistry, 2026).

Columns and labels:
[1] = molecular target: T1, hACE2 (Homo sapiens, UniProt Q9BYF1); experiment: biochemical
Method: The activity assay was performed by incubating 0.25 nM of hACE2 with 50 μM fluorogenic substrate Mca-Ala-Pro-Lys­(Dnp)–OH (MedChemExpress, Monmouth Junction, NJ, USA) and 3-fold MP dilutions (ranging from 0.03 nM to 100 μM). […] All reagents were diluted in 10 mM Tris–HCl, pH 7.4, 300 mM NaCl, 100 μM ZnCl2, 0.1% w/v BSA, and 0.1% v/v DMSO assay buffer. The measurements were performed on a Berthold TriStar LB 941 microplate reader (Berthold Technologies, Bad Wildbad, Germany) using flat-bottom 96-well half area Corning Costar plates (Corning, New York, USA). The enzymatic reactions were performed at 25 °C for 90 min, under shaking with a maximum excitation wavelength (λex) of 320 nm and maximum emission wavelength (λem) of 405 nm. The initial velocities were monitored as changes in fluorescence intensity. Half-maximum inhibitory concentration (IC50) values were determined using GraphPad Prism v8.2.1 software (GraphPad software Inc., San Diego, CA, USA). […] Fluorescence was recorded as described earlier (λex = 320 nm, λem = 405 nm) using a Berthold TriStar LB 941 microplate reader (Berthold Technologies, Bad Wildbad, Germany). Initial velocities (V 0) were plotted against substrate concentrations [S] and analyzed via nonlinear regression using a one-site specific binding model using GraphPad Prism v8.2.1 software (GraphPad software Inc., San Diego, CA, USA). […]

[2] = molecular target: T2, hACE1 (Homo sapiens, UniProt P12821); experiment: biochemical
T2 construct: purchased R&D Systems
Method: The activity assay was performed by incubating 0.25 nM of hACE2 with 50 μM fluorogenic substrate Mca-Ala-Pro-Lys­(Dnp)–OH (MedChemExpress, Monmouth Junction, NJ, USA) and 3-fold MP dilutions (ranging from 0.03 nM to 100 μM). […] All reagents were diluted in 10 mM Tris–HCl, pH 7.4, 300 mM NaCl, 100 μM ZnCl2, 0.1% w/v BSA, and 0.1% v/v DMSO assay buffer. The measurements were performed on a Berthold TriStar LB 941 microplate reader (Berthold Technologies, Bad Wildbad, Germany) using flat-bottom 96-well half area Corning Costar plates (Corning, New York, USA). The enzymatic reactions were performed at 25 °C for 90 min, under shaking with a maximum excitation wavelength (λex) of 320 nm and maximum emission wavelength (λem) of 405 nm. The initial velocities were monitored as changes in fluorescence intensity. Half-maximum inhibitory concentration (IC50) values were determined using GraphPad Prism v8.2.1 software (GraphPad software Inc., San Diego, CA, USA). […] Reactions were initiated by adding hACE2 (final concentration 0.25 nM) to the fluorogenic substrate in assay buffer at 25 °C. Fluorescence was recorded as described earlier (λex = 320 nm, λem = 405 nm) using a Berthold TriStar LB 941 microplate reader (Berthold Technologies, Bad Wildbad, Germany). Initial velocities (V 0) were plotted against substrate concentrations [S] and analyzed via nonlinear regression using a one-site specific binding model using GraphPad Prism v8.2.1 software (GraphPad software Inc., San Diego, CA, USA). […] All reagents were diluted in 10 mM Tris-HCl, pH 7.4, 300 mM NaCl, 100 μM ZnCl2, 0.1% w/v BSA, and 0.1% v/v DMSO buffer. Measurements and data analysis were performed as mentioned above.

[3] = molecular target: T1, hACE2; experiment: Grating-coupled interferometry of synthetic MPs on immobilized hACE2; format: binding; conditions: synthetic MP, immobilized hACE2, 25 °C, pH 7.4, n = 1; read-out: KD (GCI)
Method: Measurements were performed using a Creoptix WAVEsystem and a 4PCH-STA WAVEchip (Creoptix, Malvern Panalytical, Malvern, UK). Prior to immobilization, all four flow channels were conditioned with 100 mM sodium borate, 1 M NaCl buffer pH 9.0, for 180 s at 10 μL/min, followed by three start-up cycles (3 cycles of 60 s at 10 μL/min) in running buffer (1X PBS pH 7.4 supplemented with 0.005% v/v Tween-20). Biotinylated hACE2 (10 μg/mL in running buffer) was captured on the chip surface with a 420 s injection cycle at 10 μL/min, achieving a target immobilization level of approximately 1000 pg/mm^2 surface mass per flow cell. Excess of unbound hACE2 was removed by washing with running buffer for 60 s at 10 μL/min. Binding experiments were conducted using regeneration-free kinetics (RFK). Seven serial 2-fold dilutions of each synthetic MP (2.5, 5, 10, 20, 40, 80, and 160 nM in running buffer) were injected at 25 °C with a continuous flow rate of 60 μL/min. Each MP concentration was allowed to associate for 60 s and dissociate for 45 s, with a final dissociation phase of 300 s monitored after the highest concentration. Response signals were double-referenced by subtracting the signal from an unmodified reference channel (untreated flow cell without hACE2 protein) and the signal from blank buffer injections to correct for bulk refractive index changes and systematic artifacts.

[4] = molecular target: T1, hACE2; experiment: Isothermal titration calorimetry of synthetic MPs with hACE2; format: binding; conditions: 25 °C
Method: Isothermal titration calorimetry (ITC) experiments were performed at 25 °C using a MicroCal iTC200 instrument ([…], Malvern Panalytical, Malvern, UK). The hACE2 protein (initial stock 11 mg/mL, 20 mM Tris pH 7.4, 200 mM NaCl) was diluted into the assay buffer (100 mM Tris pH 7.4, 200 mM NaCl) to a final concentration of 5 μM. […] Titrations consisted of an initial 0.4 μL injection (excluded from subsequent data analysis), followed by 18 injections of 2 μL each, with a stirring rate of 750 rpm to ensure rapid mixing. A 120 s interval was maintained between injections to ensure the baseline returned to equilibrium. Blank experiments involving the titration of the synthetic MPs into the assay buffer were performed to determine and subtract the heats of dilution. Data processing was conducted using the Origin software package version 7 (OriginLab Corporation, Northampton, MA, USA). The integrated heat signals were fitted to a single-site binding model to determine the association constant (K A), the dissociation constant ([…]), the enthalpy change (ΔH), and the binding stoichiometry (n). The Gibbs free energy (ΔG) and the entropy change (ΔS) were calculated using the standard thermodynamic relationship: ΔG=ΔH−TΔS=−RTln(KA)

[5] = Plasma stability of synthetic peptides (LC-MS); conditions: 37 °C
Method: The mixtures were incubated at 37 °C in a water bath (VWR, Pennsylvania, PA, USA). At designated time points (0, 0.25, 0.5, 1, 2, 4, 8, 24, and 48 h), 100 μL aliquots were withdrawn and quenched with 100 μL of 100% v/v ACN. Following centrifugation (10 min at 15000 g, 4 °C), 100 μL of the supernatant was collected and diluted with 50 μL of solvent A (99.9% v/v H2O and 0.1% v/v FA). Samples were characterized by LC–MS using an Agilent 1260 Infinity II LC system coupled to an InfinityLab LC/MSD mass spectrometer (Agilent Technologies, Santa Clara, CA, USA). The system operated with a standard ESI source in negative ionization mode. Separation was performed on a reversed-phase Symmetry C18 column (5 μm, 150 mm × 4.6 mm, Waters, Milford, MA, USA) using a linear gradient of 10–100% solvent B over 22 min at a flow rate of 0.6 mL/min (Solvent A: 99.9% v/v H2O and 0.1% v/v FA; Solvent B: 99.9% v/v ACN and 0.1% v/v FA). Data acquisition, processing, and analysis were performed using MestReNova v.12.0.1 (Mestrelab Research, Santiago de Compostela, Spain). All samples were analyzed in duplicate (n = 2). The percentage of remaining peptide was calculated by integrating the peak areas, with the area at 0 h defined as 100%. Half-lives (t 1/2) were determined via nonlinear regression analysis using GraphPad Prism (GraphPad software Inc., San Diego, CA, USA). Data are presented as mean values ± s.d.

[6] = test system: mouse model of induced colitis; design: method as in ref 26 (Byrnes et al. 2009); conditions: 300 mg/kg twice daily, citation mark lost in text, ref 26 (Byrnes et al. 2009); cited from earlier work

T1 sequence (Q9BYF1 19-615): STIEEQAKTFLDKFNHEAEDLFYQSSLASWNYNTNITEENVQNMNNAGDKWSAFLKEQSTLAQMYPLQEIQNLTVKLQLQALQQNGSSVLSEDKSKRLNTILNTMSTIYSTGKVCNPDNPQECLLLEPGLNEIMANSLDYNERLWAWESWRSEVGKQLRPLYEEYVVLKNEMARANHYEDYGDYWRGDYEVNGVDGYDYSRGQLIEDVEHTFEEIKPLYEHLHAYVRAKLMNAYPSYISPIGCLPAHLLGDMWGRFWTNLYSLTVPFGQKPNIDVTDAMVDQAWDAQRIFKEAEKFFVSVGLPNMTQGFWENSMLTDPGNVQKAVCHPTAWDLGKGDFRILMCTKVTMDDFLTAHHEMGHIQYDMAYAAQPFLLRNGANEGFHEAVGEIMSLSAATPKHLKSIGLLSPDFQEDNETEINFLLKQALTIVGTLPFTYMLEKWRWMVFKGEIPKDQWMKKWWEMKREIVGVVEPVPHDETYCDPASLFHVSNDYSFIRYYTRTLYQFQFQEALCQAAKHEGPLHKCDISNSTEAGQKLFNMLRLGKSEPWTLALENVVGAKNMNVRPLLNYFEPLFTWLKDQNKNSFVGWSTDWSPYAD
T2 sequence (P12821 30-1306): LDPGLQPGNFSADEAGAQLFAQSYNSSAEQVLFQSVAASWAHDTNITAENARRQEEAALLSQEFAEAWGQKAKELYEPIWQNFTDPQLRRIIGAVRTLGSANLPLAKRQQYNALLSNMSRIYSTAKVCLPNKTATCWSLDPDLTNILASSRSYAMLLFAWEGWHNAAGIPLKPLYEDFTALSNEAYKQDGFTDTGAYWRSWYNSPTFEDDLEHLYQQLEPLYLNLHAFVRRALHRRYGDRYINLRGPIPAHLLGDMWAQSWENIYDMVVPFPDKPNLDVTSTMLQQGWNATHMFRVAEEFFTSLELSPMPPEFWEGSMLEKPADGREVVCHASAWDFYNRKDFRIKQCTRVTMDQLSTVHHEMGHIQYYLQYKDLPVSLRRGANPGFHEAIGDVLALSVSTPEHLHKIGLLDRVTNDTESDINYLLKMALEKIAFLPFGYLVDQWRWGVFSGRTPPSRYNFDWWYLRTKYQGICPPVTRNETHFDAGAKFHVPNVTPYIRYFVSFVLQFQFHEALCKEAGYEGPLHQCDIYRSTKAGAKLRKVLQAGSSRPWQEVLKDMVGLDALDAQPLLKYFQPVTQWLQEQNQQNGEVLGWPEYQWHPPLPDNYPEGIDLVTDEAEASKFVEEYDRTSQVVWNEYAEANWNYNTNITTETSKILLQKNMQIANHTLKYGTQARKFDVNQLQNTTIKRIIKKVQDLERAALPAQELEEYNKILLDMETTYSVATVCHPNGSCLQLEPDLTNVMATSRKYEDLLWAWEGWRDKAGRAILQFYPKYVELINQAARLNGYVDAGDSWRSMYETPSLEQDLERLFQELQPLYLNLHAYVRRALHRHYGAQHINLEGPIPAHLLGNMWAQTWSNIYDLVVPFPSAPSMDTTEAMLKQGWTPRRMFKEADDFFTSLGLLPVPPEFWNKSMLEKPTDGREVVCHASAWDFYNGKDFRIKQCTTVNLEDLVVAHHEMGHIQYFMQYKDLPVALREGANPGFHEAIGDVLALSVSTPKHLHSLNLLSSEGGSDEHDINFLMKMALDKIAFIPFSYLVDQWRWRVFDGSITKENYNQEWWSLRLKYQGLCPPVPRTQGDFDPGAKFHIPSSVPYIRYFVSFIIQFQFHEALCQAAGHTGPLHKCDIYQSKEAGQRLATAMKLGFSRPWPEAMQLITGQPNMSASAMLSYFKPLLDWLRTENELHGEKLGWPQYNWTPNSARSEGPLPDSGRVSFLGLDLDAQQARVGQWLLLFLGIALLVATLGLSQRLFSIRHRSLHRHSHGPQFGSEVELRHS

For `CC(C)C[C@@H]1NC(=O)[C@H](Cc2ccccc2)NC(=O)[C@@H](NC(=O)[C@H](C)N)CSSC[C@@H](C(=O)N[C@@H](CO)C(=O)NCC(N)=O)NC(=O)[C@H](Cc2c[nH]c3ccccc23)NC(=O)[C@H](CC(C)C)NC(=O)[C@H](Cc2c[nH]c3ccccc23)NC(=O)[C@@H]2CSSC[C@H](NC(=O)[C@H](CCCNC(=N)N)NC1=O)C(=O)N[C@@H](Cc1c[nH]cn1)C(=O)N[C@@H](CCCNC(=N)N)C(=O)N[C@@H](CC(=O)O)C(=O)N[C@@H](C(C)C)C(=O)N[C@@H](CCCCN)C(=O)N2` [GR3.1.2], the Ki [1] was 1.5 nM, the IC50 [2] was greater than 100000 nM and the Ki [2] was greater than 100000 nM. For the same compound, the Kd [3] was 4.1 nM, the “ΔH (ITC)” value [4] was -34.1 ± 0.6 kJ/mol and the “-TΔS (ITC)” value ([4]; calculated) was -8.2 kJ/mol. The “t1/2 times longer than GR1.1” value ([5]; human plasma) was 1.5 times, the “t1/2 times longer than GR1.4” value ([5]; human plasma) was 1.3 times and the half-life ([5]; human, plasma, plasma half-life t1/2, human plasma, 10 μM, LC-MS, n = 2) was 8.6 h.

For `CC(C)C[C@H](N[C@@H](Cc1cncn1Cc1cc(Cl)cc(Cl)c1)C(=O)O)C(=O)O` [MLN-4760], the “effect on disease severity” value [6] is given as “reduce disease severity”.
